Results from patent publication US20060135432A1, “Agonists and antagonists of conadotropin-releasing hormone-2, and use thereof” (priority 2002, published 2006).
pEC50, pIC50: −log10 of the molar value. Where a SMILES comes first, the peptide text is derived from it. [ ]: non-standard residue; d: D form. dPhe(4-Cl) = N[C@H](Cc1ccc(Cl)cc1)C(=O)O; d2Nal = N[C@H](Cc1ccc2ccccc2c1)C(=O)O; dCit = NC(=O)NCCC[C@@H](N)C(=O)O; d3Pal = N[C@H](Cc1cccnc1)C(=O)O; pGlu = O=C1CC[C@@H](C(=O)O)N1

How the values were obtained:
rat GnRHR [1] = biological target: T1, rat GnRHR (Rattus norvegicus, UniProt P30969); experiment: Inhibition of GnRH-1-induced IP production in GH3 cells expressing rat GnRHR; assay type: cell-based
T1 construct: expressed in transfected cells; host or cells: GH3 cells, retroviral infection
T1 sequence (P30969 1-327): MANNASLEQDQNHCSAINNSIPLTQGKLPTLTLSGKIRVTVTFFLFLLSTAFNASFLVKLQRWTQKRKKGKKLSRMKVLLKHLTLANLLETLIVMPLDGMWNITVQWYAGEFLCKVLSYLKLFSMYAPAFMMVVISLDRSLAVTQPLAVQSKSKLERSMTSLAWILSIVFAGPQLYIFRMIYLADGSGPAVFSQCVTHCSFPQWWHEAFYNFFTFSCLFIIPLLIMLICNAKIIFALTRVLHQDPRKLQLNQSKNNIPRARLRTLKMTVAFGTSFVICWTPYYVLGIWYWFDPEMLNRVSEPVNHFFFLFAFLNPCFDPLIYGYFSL
Protocol: GH3 cell lines were obtained from the Cell Line Bank at the Cancer Research Center, Seoul National University College of Medicine, located in Seoul, Republic of Korea. The GH3 cell lines were infected with retroviruses comprising genes encoding bfGnRHR-1, bfGnRHR-2, and bfGnRHR-3 which are bullfrog GnRH receptors, and rat GnRHR, and cell lines expressing each of these receptors were obtained. The GH3 cells expressing bfGnRHR-1, bfGnRHR-2, bfGnRHR-3, and rat GnRHR were cultured on 12-well plates. After 24 hours, the cells were cultured again for 24 hours in a media containing no inositol, to which H^3-myoinositol was added. The resultant cells were washed with buffer A (140 mM NaCl, 20 mM HEPES, 4 mM KCl, 8 mM D-Glucose, 1 mM MgCl2, 1 mM CaCl2, 1 mg/ml BSA) and then cultured in buffer A containing 10 mM LiCl at 37°C. for 30 minutes. Thereafter, they were treated with GnRH having a suitable concentration, cultured at 37° C. for another 30 minutes, and then the media was eliminated. The cells were treated with 10 mM of ice-cold formic acid to terminate the reaction, and the cell extracts were mixed with Dowex anionic exchange resins. These resins were washed with distilled water, IP was extracted with 1 M ammonium formate/0.1 M formic acid, and cpm (count per minute) was determined.
However, Trptorelix-1 could reduce the production of IP induced by 1 nM GnRH-2, in a concentration-dependent manner (FIG. 6a to FIG. 6c).

Primate GnRH-2 receptor [2] = experiment: Inhibition of GnRH-2-induced c-fos-luc luciferase activity in cells expressing Primate GnRH-2 receptor; assay type: cell-based; details: treated at the same time as GnRH-2
Protocol: (§1) Complimentary DNA (cDNA) for a Primate GnRH-2 receptor was obtained from a CV-1 cell genome. […] Plasmids having Primate GnRH-2 receptors where transfected into CV-1 cells. To assay the activity of the receptor, c-fos-luc where a luciferase gene is fused with a c-fos promoter was co-transfected as a probe gene. After 48 hours from transfection, the cells were treated with GnRH-2 agonists and then the activity of luciferase was assayed (Seong et al., Endocrinology vol 144 2003, 454-466).
In the same manner as in 2-3 above, Primate GnRH-2 receptors were co-transfected along with c-fos-luc reporter genes, and after 48 hours, GnRH-2 and GnRH-2 antagonists were treated thereinto at the same time and then the effect of GnRH-2 antagonists was observed.

rat GnRHR [3] = biological target: T1, rat GnRHR; experiment: Inositol phosphate (IP) production in GH3 cells expressing rat GnRHR; assay type: cell-based; details: for pEC50: GH3 cells, 30 min, given as log EC50 (negative values)
Description: The GnRH receptor, a membrane protein connected with the G protein, activates the G protein when activated by a ligand, and the activated G protein activates phospholipase C and thereby the synthesis of inositol phosphate (IP), which is the second transmitter in cells, is increased. Based on this principle, the activity of a receptor can be investigated by measuring the amount of IP within cells. GH3 cell lines were obtained from the Cell Line Bank at the Cancer Research Center, Seoul National University College of Medicine, located in Seoul, Republic of Korea. The GH3 cell lines were infected with retroviruses comprising genes encoding […]-2, and bfGnRHR-3 which are bullfrog GnRH receptors, and rat GnRHR, and cell lines expressing each of these receptors were obtained. The GH3 cells expressing […]-3, and rat GnRHR were cultured on 12-well plates. After 24 hours, the cells were cultured again for 24 hours in a media containing no inositol, to which H^3-myoinositol was added. […] Thereafter, they were treated with GnRH having a suitable concentration, cultured at 37° C. for another 30 minutes, and then the media was eliminated. The cells were treated with 10 mM of ice-cold formic acid to terminate the reaction, and the cell extracts were mixed with Dowex anionic exchange resins. These resins were washed with distilled water, IP was extracted with 1 M ammonium formate/0.1 M formic acid, and cpm (count per minute) was determined. The GH3 cell lines were infected with retroviruses comprising genes encoding […]-2, and bfGnRHR-3 which are bullfrog GnRH receptors, and rat GnRHR, and cell lines expressing each of these receptors were obtained.

TSU-Pri cells = experiment: Binding of radiolabeled GnRH to TSU-Pri prostate cancer cells; set-up: species or system human; details: room temperature, 6 hours
Protocol: TSU-Pri, which is one of the prostate cancer cell lines, was cultured along with the radiolabeled I^125GnRH-1 and I^125GnRH-2. […] The radiolabeled GnRH and the cells were cultured at room temperature for 6 hours, and then washed with PBS (phosphate-buffered saline) several times to eliminate the unbound GnRH. Thereafter, the cells were isolated and radioactivity from the cells was measured using a y-counter.

rat GnRHR [4] = biological target: T1, rat GnRHR; experiment: I125-GnRH-2 competitive ligand-receptor binding, membranes of GH3 cells expressing rat GnRHR; details: competition with I125-GnRH-2, 4 °C, 16 hours; read-out: Binding affinity (log IC50 value) (converted)
Protocol: To determine the binding affinity between GnRH and GnRH receptors, GnRH-2 was radiolabeled with I^125. […] After 48 hours, the cells were homogenized to obtain cellular membranes, which were then dissolved in binding buffer (40 mM Tris, pH 7.4, 2 mM MgCl2). 20 μg of membrane proteins were reacted with I^125-GnRH-2 at 4° C. for 16 hours. […] After the reaction was completed, 1^125-GnRH-2 bound to the receptors was filtered using a Brandel harvester, and cpm was measured using a y-counter.

bfGnRHR-1 = experiment: Inositol phosphate (IP) production in GH3 cells expressing bfGnRHR-1; assay type: cell-based, bullfrog
Description: The GnRH receptor, a membrane protein connected with the G protein, activates the G protein when activated by a ligand, and the activated G protein activates phospholipase C and thereby the synthesis of inositol phosphate (IP), which is the second transmitter in cells, is increased. Based on this principle, the activity of a receptor can be investigated by measuring the amount of IP within cells. GH3 cell lines were obtained from the Cell Line Bank at the Cancer Research Center, Seoul National University College of Medicine, located in Seoul, Republic of Korea. The GH3 cell lines were infected with retroviruses comprising genes encoding […]-2, and bfGnRHR-3 which are bullfrog GnRH receptors, and rat GnRHR, and cell lines expressing each of these receptors were obtained. The GH3 cells expressing […]-3, and rat GnRHR were cultured on 12-well plates. After 24 hours, the cells were cultured again for 24 hours in a media containing no inositol, to which H^3-myoinositol was added. […] Thereafter, they were treated with GnRH having a suitable concentration, cultured at 37° C. for another 30 minutes, and then the media was eliminated. […] These resins were washed with distilled water, IP was extracted with 1 M ammonium formate/0.1 M formic acid, and cpm (count per minute) was determined. […]

Primate GnRH-2 receptor [5] = experiment: c-fos-luc luciferase activation in CV-1 cells expressing Primate GnRH-2 receptor; assay type: cell-based
Protocol: as §1
Of the GnRH-2 receptors, [D-Ala^6]GnRH-2 performed excellently, showing effects about 3 times that of a wild-type ligand, GnRH-2. […] When analogs where the 5th, 7th, and 8th amino acids of [D-Ala^6]GnRH-2 are substituted were used, it was observed that their effects were weaker than [D-Ala^6]GnRH-2, and therefore it can be seen that it is important to maintain His, Trp, and Tyr that are found at the 5th, 7th, and 8th positions of GnRH-2 as they are (FIG. 3b).

CC(=O)N[C@H](Cc1ccc2ccccc2c1)C(=O)N[C@H](Cc1ccc(Cl)cc1)C(=O)N[C@H](Cc1cccnc1)C(=O)N[C@@H](CO)C(=O)N[C@@H](Cc1ccc(O)cc1)C(=O)N[C@H](CCCNC(N)=O)C(=O)N[C@@H](CC(C)C)C(=O)N[C@@H](CCCNC(=N)N)C(=O)N1CCC[C@H]1C(=O)N[C@H](C)C(N)=O [Cetrorelix, Ac-D-2Nal-(4Cl)-D-Phe-D-3Pal-Ser-Tyr-D-Cit-Leu-Arg-Pro-D-Ala-NH2, reference compound] (Ac-[d2Nal][dPhe(4-Cl)][d3Pal]SY[dCit]LRP[dA]-NH2)
pIC50 (rat GnRHR [1]): 11.03 | effect on luciferase activity induced by GnRH-2 (Primate GnRH-2 receptor [2]): no effect

NC(=O)CNC(=O)[C@@H]1CCCN1C(=O)[C@H](Cc1ccc(O)cc1)NC(=O)[C@H](Cc1c[nH]c2ccccc12)NC(=O)CNC(=O)[C@H](Cc1c[nH]cn1)NC(=O)[C@H](CO)NC(=O)[C@H](Cc1c[nH]c2ccccc12)NC(=O)[C@H](Cc1c[nH]cn1)NC(=O)[C@@H]1CCC(=O)N1 [GnRH-2] ([pGlu]HWSHGWYPG-NH2)
pEC50 (rat GnRHR [3]): 8.06 | sensitivity compared with GnRH-1 (rat GnRHR [3]; rat GnRHR): a sensitivity lower than 10-fold | binding of the radiolabeled ligand to TSU-Pri cells (TSU-Pri cells): binding with cells was observed | effect of unradiolabeled competitor on binding of radiolabeled GnRH-2 to TSU-Pri cells (TSU-Pri cells): the binding was reduced | IC50 (rat GnRHR [4]): 832 nM

CC(=O)N[C@H](Cc1ccc2ccccc2c1)C(=O)N[C@H](Cc1ccc(Cl)cc1)C(=O)N[C@H](Cc1cccnc1)C(=O)N[C@@H](CO)C(=O)N[C@@H](Cc1c[nH]cn1)C(=O)N[C@H](CCCNC(N)=O)C(=O)N[C@@H](Cc1c[nH]c2ccccc12)C(=O)N[C@@H](Cc1ccc(O)cc1)C(=O)N1CCC[C@H]1C(=O)N[C@H](C)C(N)=O [Trptorelix-2, Ac-D2Nal-(4Cl)D-Phe-D-3Pal-Ser-His-DCit-Trp-Tyr-Pro-DAla-NH2] (Ac-[d2Nal][dPhe(4-Cl)][d3Pal]SH[dCit]WYP[dA]-NH2)
effect on luciferase activity induced by GnRH-2 (Primate GnRH-2 receptor [2]): reduced in a concentration-dependent manner

NC(=O)CNC(=O)[C@@H]1CCCN1C(=O)[C@H](Cc1ccc(O)cc1)NC(=O)[C@H](Cc1c[nH]c2ccccc12)NC(=O)[C@@H](Cc1c[nH]c2ccccc12)NC(=O)[C@H](Cc1c[nH]cn1)NC(=O)[C@H](CO)NC(=O)[C@H](Cc1c[nH]c2ccccc12)NC(=O)[C@H](Cc1c[nH]cn1)NC(=O)[C@@H]1CCC(=O)N1 [[D-Trp^6]GnRH-2, reference compound] ([pGlu]HWSH[dW]WYPG-NH2)
pEC50 (rat GnRHR [3]): 7.92 | concentration activating bfGnRHR-1, fold lower than GnRH-2 (bfGnRHR-1): similar | effect reduced, fold, as compared with GnRH-2 (Primate GnRH-2 receptor [5]): ~1.2 fold | IC50 (rat GnRHR [4]): 97.7 nM

Ac-D2Nal-(4Cl)D-Phe-D-3Pal-Ser-Tyr-DCit-Trp-Leu-Pro-DAla-NH2 (Ac-[d2Nal][dPhe(4-Cl)][d3Pal]SY[dCit]WLP[dA]-NH2; SMILES CC(=O)N[C@H](Cc1ccc2ccccc2c1)C(=O)N[C@H](Cc1ccc(Cl)cc1)C(=O)N[C@H](Cc1cccnc1)C(=O)N[C@@H](CO)C(=O)N[C@@H](Cc1ccc(O)cc1)C(=O)N[C@H](CCCNC(N)=O)C(=O)N[C@@H](Cc1c[nH]c2ccccc12)C(=O)N[C@@H](CC(C)C)C(=O)N1CCC[C@H]1C(=O)N[C@H](C)C(N)=O) [Trptorelix-3]
effect on luciferase activity induced by GnRH-2 (Primate GnRH-2 receptor [2]): no effect

[D-Ala^6]GnRH-1: the agonist of GnRH-1 [reference compound]
sensitivity as compared with GnRH-2 (Primate GnRH-2 receptor [5]): very low sensitivity

p-Glu-His-Trp-Ser-His-D-Lys-Trp-Tyr-Pro-Gly-NH2 ([pGlu]HWSH[dK]WYPG-NH2; SMILES NCCCC[C@@H](NC(=O)[C@H](Cc1c[nH]cn1)NC(=O)[C@H](CO)NC(=O)[C@H](Cc1c[nH]c2ccccc12)NC(=O)[C@H](Cc1c[nH]cn1)NC(=O)[C@@H]1CCC(=O)N1)C(=O)N[C@@H](Cc1c[nH]c2ccccc12)C(=O)N[C@@H](Cc1ccc(O)cc1)C(=O)N1CCC[C@H]1C(=O)NCC(N)=O) [[D-Lys^6]GnRH-2]
effect reduced, fold, as compared with GnRH-2 (Primate GnRH-2 receptor [5]): about 1.5 fold
